Experimental data reported in PubChem BioAssay AID1963961 (Molecular Pharmacology Branch, DTP, NCI, 2024).
Values joined by “and” are separate entries in the source; they are usually repeats but may differ in a detail not shown here. Equal entries are not always repeated. One block for each compound: values may come before it.

System: K98450-129-R-PDC multicell spheroids, viability
Assay: Anticancer human tumor K98450-129-R-PDC patient-derived colon adenocarcinoma cell line growth inhibition [PI3K]
Details: for viability, T/C: stronger effect = lower value
Procedure, shortened: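 Stroma-containing spheroids: tumor line, pooled-donor HUVEC, hMSC. Treatments: targeted agents with PI3K inhibitors. Dosing: clinically relevant, half-log spacing, 10 microM ceiling without known Cmax. Read-out: cell viability.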

[1] = curve of first compound, second compound 0.00316 µM
[2] = curve of first compound, second compound 0.01 µM
[3] = curve of first compound, second compound 0.0316 µM
[4] = curve of first compound, second compound 0.1 µM
[5] = curve of first compound, second compound 0.316 µM
[6] = curve of first compound, second compound 1 µM
[7] = second compound 0.00316 µM, first compound 0.0316 µM
[8] = second compound 0.00316 µM, first compound 0.1 µM
[9] = second compound 0.00316 µM, first compound 0.316 µM
[10] = second compound 0.00316 µM, first compound 1 µM
[11] = second compound 0.00316 µM, first compound 3.16 µM
[12] = second compound 0.00316 µM, first compound 10 µM
[13] = second compound 0.01 µM, first compound 0.0316 µM
[14] = second compound 0.01 µM, first compound 0.1 µM
[15] = second compound 0.01 µM, first compound 0.316 µM
[16] = second compound 0.01 µM, first compound 1 µM
[17] = second compound 0.01 µM, first compound 3.16 µM
[18] = second compound 0.01 µM, first compound 10 µM
[19] = second compound 0.0316 µM, first compound 0.0316 µM
[20] = second compound 0.0316 µM, first compound 0.1 µM
[21] = second compound 0.0316 µM, first compound 0.316 µM
[22] = second compound 0.0316 µM, first compound 1 µM
[23] = second compound 0.0316 µM, first compound 3.16 µM
[24] = second compound 0.0316 µM, first compound 10 µM
[25] = second compound 0.1 µM, first compound 0.0316 µM
[26] = second compound 0.1 µM, first compound 0.1 µM
[27] = second compound 0.1 µM, first compound 0.316 µM
[28] = second compound 0.1 µM, first compound 1 µM
[29] = second compound 0.1 µM, first compound 3.16 µM
[30] = second compound 0.1 µM, first compound 10 µM
[31] = second compound 0.316 µM, first compound 0.0316 µM
[32] = second compound 0.316 µM, first compound 0.1 µM
[33] = second compound 0.316 µM, first compound 0.316 µM
[34] = second compound 0.316 µM, first compound 1 µM
[35] = second compound 0.316 µM, first compound 3.16 µM
[36] = second compound 0.316 µM, first compound 10 µM
[37] = second compound 1 µM, first compound 0.0316 µM
[38] = second compound 1 µM, first compound 0.1 µM
[39] = second compound 1 µM, first compound 0.316 µM
[40] = second compound 1 µM, first compound 1 µM
[41] = second compound 1 µM, first compound 3.16 µM
[42] = second compound 1 µM, first compound 10 µM
[43] = curve of first compound, second compound 3.16 µM
[44] = curve of first compound, second compound 10 µM
[45] = second compound 3.16 µM, first compound 0.0316 µM
[46] = second compound 3.16 µM, first compound 0.1 µM
[47] = second compound 3.16 µM, first compound 0.316 µM
[48] = second compound 3.16 µM, first compound 1 µM
[49] = second compound 3.16 µM, first compound 3.16 µM
[50] = second compound 3.16 µM, first compound 10 µM
[51] = second compound 10 µM, first compound 0.0316 µM
[52] = second compound 10 µM, first compound 0.1 µM
[53] = second compound 10 µM, first compound 0.316 µM
[54] = second compound 10 µM, first compound 1 µM
[55] = second compound 10 µM, first compound 3.16 µM
[56] = second compound 10 µM, first compound 10 µM
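Note: spheroids exposed to agents for seven days before read-out.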

IC50 [1]: > 10 µM
IC50 [2]: > 10 µM
IC50 [3]: 6.6 µM
IC50 [4]: 9.23 µM
IC50 [5]: 4.72 µM
IC50 [6]: 0.0316 µM
Structure (SMILES): CC1(C)CCC(Nc2ncc(C(F)(F)F)c(-c3c[nH]c4c(P(C)(C)=O)c(C#N)ccc34)n2)CN1 (configuration not stated) + COc1c(OCCCN2CCOCC2)ccc2c3n(c(=NC(=O)c4cnc(N)nc4)nc12)CCN3
viability, T/C [7]: 104%
viability, T/C [8]: 99.5%
viability, T/C [9]: 66.3%
viability, T/C [10]: 60.1%
viability, T/C [11]: 60.3%
viability, T/C [12]: 52.9%
viability, T/C [13]: 113%
viability, T/C [14]: 103%
viability, T/C [15]: 67.3%
viability, T/C [16]: 61.6%
viability, T/C [17]: 67.3%
viability, T/C [18]: 48.8%
viability, T/C [19]: 94.6%
viability, T/C [20]: 77.5%
viability, T/C [21]: 68.5%
viability, T/C [22]: 69.4%
viability, T/C [23]: 61.6%
viability, T/C [24]: 42.7%
viability, T/C [25]: 79.6%
viability, T/C [26]: 86.6%
viability, T/C [27]: 63.7%
viability, T/C [28]: 69%
viability, T/C [29]: 68.7%
viability, T/C [30]: 46.1%
viability, T/C [31]: 58.3%
viability, T/C [32]: 64%
viability, T/C [33]: 59%
viability, T/C [34]: 54.7%
viability, T/C [35]: 57.8%
viability, T/C [36]: 37.3%
viability, T/C [37]: 51.6%
viability, T/C [38]: 48.9%
viability, T/C [39]: 48.8%
viability, T/C [40]: 42.7%
viability, T/C [41]: 50.7%
viability, T/C [42]: 27.2%

IC50 [3]: > 10 µM
IC50 [4]: > 10 µM
IC50 [5]: > 10 µM
IC50 [6]: > 10 µM
IC50 [43]: > 10 µM
IC50 [44]: > 10 µM
Structure (SMILES): Cn1nccc1Nc1nccc(-c2ccn(C(CO)c3ccc(Cl)c(F)c3)c(=O)c2)n1 (configuration not stated) + Cc1nc(NC(=O)N2CCCC2C(N)=O)sc1-c1ccnc(C(C)(C)C(F)(F)F)c1
viability, T/C [19]: 107%
viability, T/C [20]: 97.7%
viability, T/C [21]: 103%
viability, T/C [22]: 109%
viability, T/C [23]: 97.2%
viability, T/C [24]: 89.2%
viability, T/C [25]: 114%
viability, T/C [26]: 104%
viability, T/C [27]: 100%
viability, T/C [28]: 92.6%
viability, T/C [29]: 96.7%
viability, T/C [30]: 97.8%
viability, T/C [31]: 104%
viability, T/C [32]: 103%
viability, T/C [33]: 94.1%
viability, T/C [34]: 98.6%
viability, T/C [35]: 98.5%
viability, T/C [36]: 83.3%
viability, T/C [37]: 91.6%
viability, T/C [38]: 95.2%
viability, T/C [39]: 93.5%
viability, T/C [40]: 84.9%
viability, T/C [41]: 98.6%
viability, T/C [42]: 80.8%
viability, T/C [45]: 78.9%
viability, T/C [46]: 86.1%
viability, T/C [47]: 87%
viability, T/C [48]: 77.9%
viability, T/C [49]: 85.4%
viability, T/C [50]: 64.7%
viability, T/C [51]: 71%
viability, T/C [52]: 70.7%
viability, T/C [53]: 72.2%
viability, T/C [54]: 75%
viability, T/C [55]: 77.8%
viability, T/C [56]: 50.9%

IC50 (curve of compound): > 10 µM
Structure (SMILES): Cn1nccc1Nc1nccc(-c2ccn(C(CO)c3ccc(Cl)c(F)c3)c(=O)c2)n1 (configuration not stated)
viability, T/C (compound 0.0316 µM): 105% (2×) and 95% and 106%
viability, T/C (compound 0.1 µM): 101% (2×) and 104% and 81.8%
viability, T/C (compound 0.316 µM): 103% [middle of 4 runs]
viability, T/C (compound 1 µM): 101% [middle of 4 runs]
viability, T/C (compound 3.16 µM): 100% [middle of 4 runs]
viability, T/C (compound 10 µM): 94% [middle of 4 runs]

IC50 [1]: 6.63 µM
IC50 [2]: 6.48 µM
IC50 [3]: 6.29 µM
IC50 [4]: 6.2 µM
IC50 [5]: 5.98 µM
IC50 [6]: 5.78 µM
Structure (SMILES): CCCS(=O)(=O)Nc1ccc(F)c(C(=O)c2c[nH]c3ncc(-c4ccc(Cl)cc4)cc23)c1F + CC(Nc1ccc2c(c1)OCCn1cc(N3C(=O)OCC3C(F)F)nc1-2)C(N)=O
viability, T/C [7]: 113%
viability, T/C [8]: 104%
viability, T/C [9]: 112%
viability, T/C [10]: 111%
viability, T/C [11]: 135%
viability, T/C [12]: 14.1%
viability, T/C [13]: 117%
viability, T/C [14]: 110%
viability, T/C [15]: 114%
viability, T/C [16]: 105%
viability, T/C [17]: 148%
viability, T/C [18]: 8.38%
viability, T/C [19]: 97%
viability, T/C [20]: 105%
viability, T/C [21]: 100%
viability, T/C [22]: 105%
viability, T/C [23]: 136%
viability, T/C [24]: 10.4%
viability, T/C [25]: 96.5%
viability, T/C [26]: 102%
viability, T/C [27]: 97.9%
viability, T/C [28]: 101%
viability, T/C [29]: 130%
viability, T/C [30]: 10.7%
viability, T/C [31]: 90.6%
viability, T/C [32]: 93.7%
viability, T/C [33]: 98.5%
viability, T/C [34]: 98.4%
viability, T/C [35]: 113%
viability, T/C [36]: 10.5%
viability, T/C [37]: 88.3%
viability, T/C [38]: 88.8%
viability, T/C [39]: 91.4%
viability, T/C [40]: 97%
viability, T/C [41]: 91.2%
viability, T/C [42]: 12.5%

IC50 [3]: > 10 µM
IC50 [4]: > 10 µM
IC50 [5]: > 10 µM
IC50 [6]: > 10 µM
IC50 [43]: > 10 µM
IC50 [44]: > 10 µM
Structure (SMILES): Cn1nccc1Nc1nccc(-c2ccn(C(CO)c3ccc(Cl)c(F)c3)c(=O)c2)n1 (configuration not stated) + CC(Nc1ncnc2nc[nH]c12)c1cc2cccc(Cl)c2c(=O)n1-c1ccccc1
viability, T/C [19]: 110%
viability, T/C [20]: 102%
viability, T/C [21]: 103%
viability, T/C [22]: 94.5%
viability, T/C [23]: 88.9%
viability, T/C [24]: 85.8%
viability, T/C [25]: 106%
viability, T/C [26]: 100%
viability, T/C [27]: 91.3%
viability, T/C [28]: 93.5%
viability, T/C [29]: 94.6%
viability, T/C [30]: 87%
viability, T/C [31]: 94.5%
viability, T/C [32]: 115%
viability, T/C [33]: 91.6%
viability, T/C [34]: 92.7%
viability, T/C [35]: 96.6%
viability, T/C [36]: 56.8%
viability, T/C [37]: 89.5%
viability, T/C [38]: 103%
viability, T/C [39]: 94.6%
viability, T/C [40]: 85.4%
viability, T/C [41]: 94%
viability, T/C [42]: 81.4%
viability, T/C [45]: 79.2%
viability, T/C [46]: 86.2%
viability, T/C [47]: 95%
viability, T/C [48]: 93.8%
viability, T/C [49]: 106%
viability, T/C [50]: 84.6%
viability, T/C [51]: 90%
viability, T/C [52]: 80%
viability, T/C [53]: 78.9%
viability, T/C [54]: 87.2%
viability, T/C [55]: 80.7%
viability, T/C [56]: 66.3%

IC50 [3]: > 10 µM
IC50 [4]: > 10 µM
IC50 [5]: > 10 µM
IC50 [6]: > 10 µM
IC50 [43]: > 10 µM
IC50 [44]: > 10 µM
Structure (SMILES): CC1(C)CCC(Nc2ncc(C(F)(F)F)c(-c3c[nH]c4c(P(C)(C)=O)c(C#N)ccc34)n2)CN1 (configuration not stated) + Cc1nc(NC(=O)N2CCCC2C(N)=O)sc1-c1ccnc(C(C)(C)C(F)(F)F)c1
viability, T/C [19]: 118%
viability, T/C [20]: 101%
viability, T/C [21]: 94.7%
viability, T/C [22]: 68.7%
viability, T/C [23]: 69.8%
viability, T/C [24]: 64.6%
viability, T/C [25]: 116%
viability, T/C [26]: 104%
viability, T/C [27]: 87.2%
viability, T/C [28]: 67.4%
viability, T/C [29]: 71.1%
viability, T/C [30]: 67.6%
viability, T/C [31]: 104%
viability, T/C [32]: 102%
viability, T/C [33]: 84.7%
viability, T/C [34]: 69%
viability, T/C [35]: 69.7%
viability, T/C [36]: 66.7%
viability, T/C [37]: 103%
viability, T/C [38]: 96.8%
viability, T/C [39]: 85.8%
viability, T/C [40]: 69.6%
viability, T/C [41]: 70%
viability, T/C [42]: 63.4%
viability, T/C [45]: 88.1%
viability, T/C [46]: 95.5%
viability, T/C [47]: 83%
viability, T/C [48]: 67.8%
viability, T/C [49]: 67.4%
viability, T/C [50]: 56.5%
viability, T/C [51]: 81.6%
viability, T/C [52]: 85.5%
viability, T/C [53]: 70%
viability, T/C [54]: 60.8%
viability, T/C [55]: 62.4%
viability, T/C [56]: 50.5%
